System: irritative contact dermatitis induced on the ears of mice by croton oil
Test: Croton oil-induced irritative contact dermatitis on the mouse ear (ear weight, elastase and peroxidase in ear homogenate)
Assay type: in vivo
Settings: for Edema formation Weight change in %: ear weight at 24 h, vs croton oil + vehicle; for Inhibition [%] of Skin infiltration of Granulocytes & Monocytes (Myelo-Peroxidase Activity) / Inhibition [%] of Skin infiltration of Neutrophils Elastase Activity: ear homogenate at 24 h
Source text: To do this, an inflammatory reaction, i.e., irritative contact dermatitis, is induced on the ears of mice by means of croton oil, and the test substance is applied. This test is explained in more detail below within the framework of the examples. The induction of an inflammatory reaction (irritative contact dermatitis) is a proven model for pharmacological evaluation of the anti-inflammatory potential of topically or systemically administered test substances ([…] and Lowe (1985) Evaluation of Topical Nonsteroidal Anti-Inflammatory Agents, Models in Dermatology, H. Maibach and N.J. Lowe. Basel, Karger: 35-42). Croton oil is applied to the ears of mice to carry out the study; this leads to an acute, inflammatory reaction with edema and infiltration of primarily polymorphonuclear granulocytes that reaches its peak within 24 hours. Test substance can be applied here either preventively, i.e., before application of the inflammatory stimulus, or simultaneously with croton oil. […] The vehicle alone acted as the vehicle control. […] The animals were sacrificed 24 hours after the eczema was triggered, and the ear weight was determined as a measure of inflammation and edema formation. In addition, the elastase and peroxidase parameters were determined from the ear homogenate. The number of animals was basically n=10/group. Elastase is a largely neutrophil-specific enzyme and thus a measure of the number of infiltrated neutrophilic granulocytes. […] Peroxidase is expressed by all granulocytes, in addition also by monocytes. It is used for measuring the infiltrated granulocytes and monocytes. Like neutrophils, granulocytes and monocytes/macrophages are also involved in inflammatory processes of the skin and can be repeatedly detected in the infiltrate of the aforementioned diseases.

[1] = tretinoin 0.05%, listed as tretinoin
[2] = azelaic acid 10%, listed as azelaic acid
[3] = azelaic acid 20%, listed as azelaic acid

With `CC1=C(/C=C/C(C)=C/C=C/C(C)=C/C(=O)O)C(C)(C)CCC1` [Tretinoin, tretinoin] the “Edema formation Weight change in %” value (tretinoin 0.05% topical with 1% croton oil) was −4%, the “Edema formation Weight change in %” value (tretinoin 0.05% topical with 1% croton oil, listed as tretinoin) was “does not lead to any significant reduction of edema” and the “Inhibition [%] of Skin infiltration of Granulocytes & Monocytes (Myelo-Peroxidase Activity)” value (“Inhibition [%] … (Myelo-Peroxidase Activity)” for short) (tretinoin 0.05%) was −3%. For the same compound, the “Inhibition [%] of Skin infiltration of Neutrophils Elastase Activity” value (tretinoin 0.05%) was 2%, the “Inhibition [%] … (Myelo-Peroxidase Activity)” value [1] was “did not lead to a significant decrease of peroxidase concentration” and the “Inhibition [%] of Skin infiltration of Neutrophils Elastase Activity” value [1] was “did not lead to a decrease of the elastase concentration”.
In the case of `O=C(O)CCCCCCCC(=O)O` [Azelaic acid, azelaic acid], the “Edema formation Weight change in %” value (azelaic acid 10% topical with 1% croton oil) is reported as −6%, the “Edema formation Weight change in %” value (azelaic acid 10% topical with 1% croton oil, listed as azelaic acid) is reported as “no significant reduction of the edema” and the “Inhibition [%] … (Myelo-Peroxidase Activity)” value (azelaic acid 10%) is reported as −34%. For the same compound, the “Inhibition [%] of Skin infiltration of Neutrophils Elastase Activity” value (azelaic acid 10%) was −12%, the “Inhibition [%] … (Myelo-Peroxidase Activity)” value [2] was “could already be influenced” and the “Inhibition [%] of Skin infiltration of Neutrophils Elastase Activity” value [2] was “cannot be significantly influenced”. The “Edema formation Weight change in %” value (azelaic acid 15% topical with 1% croton oil) was 1%, the “Edema formation Weight change in %” value (azelaic acid 15% topical with 1% croton oil, listed as azelaic acid) was “even an increase” and the “Inhibition [%] … (Myelo-Peroxidase Activity)” value (azelaic acid 15%) was −16%. The “Inhibition [%] of Skin infiltration of Neutrophils Elastase Activity” value (azelaic acid 15%) was −6%, the “Inhibition [%] of Skin infiltration of Neutrophils Elastase Activity” value (azelaic acid 15%, listed as azelaic acid) was “cannot be significantly influenced” and the “Edema formation Weight change in %” value (azelaic acid 20% topical with 1% croton oil) was −16%. For the same compound, the “Edema formation Weight change in %” value (azelaic acid 20% topical with 1% croton oil, listed as azelaic acid) was “no significant reduction of the edema”, the “Inhibition [%] … (Myelo-Peroxidase Activity)” value (azelaic acid 20%) was −40% and the “Inhibition [%] of Skin infiltration of Neutrophils Elastase Activity” value (azelaic acid 20%) was −48%. For the same compound, the “Inhibition [%] … (Myelo-Peroxidase Activity)” value [3] was “could already be influenced” and the “Inhibition [%] of Skin infiltration of Neutrophils Elastase Activity” value [3] was “reduced”.
